The target of the assay is T1, full length Aurora-A (AA 1-403) (Homo sapiens, UniProt O14965).
T1 sequence (O14965 1-403): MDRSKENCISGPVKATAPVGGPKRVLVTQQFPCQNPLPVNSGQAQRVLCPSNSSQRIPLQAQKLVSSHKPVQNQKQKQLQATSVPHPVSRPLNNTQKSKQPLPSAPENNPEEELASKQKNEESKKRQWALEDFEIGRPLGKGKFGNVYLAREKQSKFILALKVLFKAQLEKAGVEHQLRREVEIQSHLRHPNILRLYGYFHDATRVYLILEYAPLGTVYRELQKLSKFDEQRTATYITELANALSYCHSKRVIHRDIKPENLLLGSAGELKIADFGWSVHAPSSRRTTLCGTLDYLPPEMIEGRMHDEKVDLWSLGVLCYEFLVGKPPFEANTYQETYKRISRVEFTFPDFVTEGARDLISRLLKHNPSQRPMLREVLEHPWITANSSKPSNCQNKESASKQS
The assay is described as follows: AuroraA Inhibition Assay (coupled enzyme system). It counts as biochemical. Particulars: standard coupled enzyme system, 200 μM ATP, 800 μM peptide (LRRASLG), 35 nM Aurora-A, 30° C. On the procedure: Compounds were screened for their ability to inhibit full length Aurora-A (AA 1-403) activity using a standard coupled enzyme system (Fox et al., Protein Sci., 7, pp. 2249 (1998)). Reactions were carried out in a solution containing 100 mM HEPES (pH 7.5), 10 mM MgCl2, 25 mM NaCl, 300 μM NADH, 1 mM DTT and 3% DMSO. Final substrate concentrations in the assay were 200 μM ATP (Sigma Chemicals, St Louis, Mo.) and 800 μM peptide (LRRASLG, American Peptide, Sunnyvale, Calif.). Reactions were carried out at 30° C. and 35 nM Aurora-A. Final concentrations of the components of the coupled enzyme system were 2.5 mM phosphoenolpyruvate, 200 μM NADH, 60 μg/ml pyruvate kinase and 20 μg/ml lactate dehydrogenase.
An assay stock buffer solution was prepared containing all of the reagents listed above with the exception of ATP and the test compound of interest. The assay stock buffer solution (60 μl) was incubated in a 96 well plate with 2 μl of the test compound of interest at final concentrations spanning 0.002 μM to 30 μM at 30° C. for 10 min. […] Rates of reaction were obtained using a Molecular Devices Spectramax plate reader (Sunnyvale, Calif.) over 10 min at 30° C. The Ki values were determined from the rate data as a function of inhibitor concentration using computerized nonlinear regression (Prism 3.0, Graphpad Software, San Diego, Calif.).

For 2 compounds, Ki results are on record in US20130096302A1, “PYRROLOPYRAZINES AND PYRAZOLOPYRAZINES USEFUL AS INHIBITORS OF PROTEIN KINASES” (priority 2005, published 2013).

As for `Clc1cnc2[nH]cc(-c3cccc(Br)c3)c2n1` [Compound I-1, 7-(3-Bromo-phenyl)-2-chloro-5H-pyrrolo[2,3-b]pyrazine], the Ki was less than 200 nM.
Under `C[C@H](Nc1nc(-c2c[nH]c3ncc(Cl)nc23)ncc1F)c1ccc(F)cc1` [Compound I-28] stands less than 200 nM.
